Experimental data from US20120034193A1, “TREATMENT OF NEUROTROPHIC FACTOR MEDIATED DISORDERS” (priority 2009, published 2012).

Key:
[1] = biological target: 5-Hydroxytryptamine, 5-HT5A (Homo sapiens, UniProt P47898); experiment: Binding assay; settings: smilagenin 1 μM
Method in brief: (§1)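 Single-concentration screen at 1 μM. Displacement of a receptor-selective radiolabelled ligand from tissue/cell homogenate was measured after separating unbound label; values give percent inhibition of specific binding. Receptor source, radioligand and incubation varied between targets.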

APJ = APJ (Homo sapiens, UniProt P35414); experiment: Binding assay; settings: smilagenin 1 μM
Method in brief: as §1

Adensonine A2A = Adensonine A2A (Homo sapiens, UniProt P29274); experiment: Binding assay; settings: smilagenin 1 μM
Method in brief: as §1

Adrenergic α2C = Adrenergic α2C (Homo sapiens, UniProt P18825); experiment: Binding assay; settings: smilagenin 1 μM
Method in brief: as §1

Adrenomedullin AM2 = Adrenomedullin AM2 (Homo sapiens, UniProt O60896+Q16602); experiment: Binding assay; settings: smilagenin 1 μM
Method in brief: as §1

Aldosterone = Aldosterone (Rattus norvegicus, UniProt P22199); experiment: Binding assay; settings: smilagenin 1 μM
Method in brief: as §1

Anaphylatoxin C5a = Anaphylatoxin C5a (Homo sapiens, UniProt P21730); experiment: Binding assay; settings: smilagenin 1 μM
Method in brief: as §1

Chemokine CCR2B = Chemokine CCR2B (Homo sapiens, UniProt P41597); experiment: Binding assay; settings: smilagenin 1 μM
Method in brief: as §1

[2] = biological target: Cholecystokinin CCK1 (CCKA) (Homo sapiens, UniProt P32238); experiment: Binding assay; settings: smilagenin 1 μM
Method in brief: as §1

Dopamine D2S = Dopamine D2S (Homo sapiens, UniProt P14416); experiment: Binding assay; settings: smilagenin 1 μM
Sequence of Dopamine D2S (P14416 1-414 isoform P14416-2): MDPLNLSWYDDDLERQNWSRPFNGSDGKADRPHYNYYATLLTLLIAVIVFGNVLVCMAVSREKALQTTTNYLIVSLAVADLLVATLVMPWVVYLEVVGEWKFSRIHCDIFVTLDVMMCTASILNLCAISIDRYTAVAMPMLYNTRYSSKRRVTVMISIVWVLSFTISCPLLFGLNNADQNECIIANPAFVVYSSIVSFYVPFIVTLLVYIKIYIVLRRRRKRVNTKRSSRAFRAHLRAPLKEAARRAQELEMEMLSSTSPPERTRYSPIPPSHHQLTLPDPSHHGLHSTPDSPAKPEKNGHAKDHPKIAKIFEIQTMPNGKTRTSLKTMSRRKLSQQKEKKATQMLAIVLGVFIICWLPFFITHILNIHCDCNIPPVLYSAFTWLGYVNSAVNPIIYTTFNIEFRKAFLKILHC
Method in brief: as §1

Endothelin ETA = Endothelin ETA (Homo sapiens, UniProt P25101); experiment: Binding assay; settings: smilagenin 1 μM
Method in brief: as §1

Galanin GAL2 = biological target: T1, Galanin GAL2 (Homo sapiens, UniProt O43603); experiment: Binding assay; settings: smilagenin 1 μM
T1 construct: host or cells: tissue or cell homogenate (not specified)
T1 sequence (O43603 whole entry): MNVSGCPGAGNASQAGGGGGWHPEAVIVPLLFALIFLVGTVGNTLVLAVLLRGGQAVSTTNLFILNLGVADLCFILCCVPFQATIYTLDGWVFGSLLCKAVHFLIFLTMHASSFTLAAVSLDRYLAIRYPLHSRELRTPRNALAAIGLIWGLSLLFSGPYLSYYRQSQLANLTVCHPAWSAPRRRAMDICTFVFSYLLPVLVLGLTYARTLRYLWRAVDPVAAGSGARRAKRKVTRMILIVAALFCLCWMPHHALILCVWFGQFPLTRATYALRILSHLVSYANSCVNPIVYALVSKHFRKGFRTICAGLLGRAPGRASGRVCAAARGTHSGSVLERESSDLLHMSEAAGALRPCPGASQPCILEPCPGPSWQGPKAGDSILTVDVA
Method in brief: as §1

Histamine H2 = biological target: T2, Histamine H2 (Homo sapiens, UniProt P25021); experiment: Binding assay; settings: smilagenin 1 μM
T2 construct: host or cells: tissue or cell homogenate (not specified)
T2 sequence (P25021 whole entry): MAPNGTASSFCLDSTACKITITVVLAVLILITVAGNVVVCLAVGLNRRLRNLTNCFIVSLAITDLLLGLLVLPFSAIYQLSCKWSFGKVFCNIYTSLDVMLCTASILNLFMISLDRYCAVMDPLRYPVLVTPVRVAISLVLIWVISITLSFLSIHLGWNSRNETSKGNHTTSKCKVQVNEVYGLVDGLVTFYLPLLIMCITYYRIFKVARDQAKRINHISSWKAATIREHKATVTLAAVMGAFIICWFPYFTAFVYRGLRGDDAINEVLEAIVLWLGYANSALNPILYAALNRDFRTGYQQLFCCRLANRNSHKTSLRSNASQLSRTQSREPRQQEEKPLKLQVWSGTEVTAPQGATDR
Method in brief: as §1

[3] = biological target: Leukotriene, Cysteinyl CysLT1 (Homo sapiens, UniProt Q9Y271); experiment: Binding assay; settings: smilagenin 1 μM
Sequence of Leukotriene, Cysteinyl CysLT1 (Q9Y271 whole entry): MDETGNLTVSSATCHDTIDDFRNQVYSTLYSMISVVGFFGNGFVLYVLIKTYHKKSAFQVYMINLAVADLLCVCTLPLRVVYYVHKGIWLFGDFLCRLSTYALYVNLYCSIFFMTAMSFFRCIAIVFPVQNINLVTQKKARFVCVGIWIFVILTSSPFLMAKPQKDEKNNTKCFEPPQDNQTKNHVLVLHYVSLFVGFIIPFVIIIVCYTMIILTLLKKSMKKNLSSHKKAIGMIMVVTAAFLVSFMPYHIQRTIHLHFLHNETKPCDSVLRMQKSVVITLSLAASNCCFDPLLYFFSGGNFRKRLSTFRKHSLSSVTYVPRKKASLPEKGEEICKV
Method in brief: as §1

Melanocortin MC1 = Melanocortin MC1 (Homo sapiens, UniProt Q01726); experiment: Binding assay; settings: smilagenin 1 μM
Sequence of Melanocortin MC1 (Q01726 whole entry): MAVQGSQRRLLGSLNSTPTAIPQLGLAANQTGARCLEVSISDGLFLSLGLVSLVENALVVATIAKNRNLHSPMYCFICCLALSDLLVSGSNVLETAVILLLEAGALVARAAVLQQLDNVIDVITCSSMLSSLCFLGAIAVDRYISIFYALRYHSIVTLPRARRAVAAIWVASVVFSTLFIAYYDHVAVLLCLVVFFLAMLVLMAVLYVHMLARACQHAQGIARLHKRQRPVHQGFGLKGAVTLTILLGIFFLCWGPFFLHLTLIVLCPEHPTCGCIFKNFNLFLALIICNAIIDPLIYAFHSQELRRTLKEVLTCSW
Method in brief: as §1

Melatonin MT2 = Melatonin MT2 (Homo sapiens, UniProt P49286); experiment: Binding assay; settings: smilagenin 1 μM
Method in brief: as §1

Muscarinic M2 = biological target: T3, Muscarinic M2 (Homo sapiens, UniProt P08172); experiment: Binding assay; settings: smilagenin 1 μM
T3 construct: host or cells: tissue or cell homogenate, not specified
Method in brief: as §1

[4] = biological target: N-Formyl Peptide Receptor FPR1 (Homo sapiens, UniProt P21462); experiment: Binding assay; settings: smilagenin 1 μM
Sequence of N-Formyl Peptide Receptor FPR1 (P21462 whole entry): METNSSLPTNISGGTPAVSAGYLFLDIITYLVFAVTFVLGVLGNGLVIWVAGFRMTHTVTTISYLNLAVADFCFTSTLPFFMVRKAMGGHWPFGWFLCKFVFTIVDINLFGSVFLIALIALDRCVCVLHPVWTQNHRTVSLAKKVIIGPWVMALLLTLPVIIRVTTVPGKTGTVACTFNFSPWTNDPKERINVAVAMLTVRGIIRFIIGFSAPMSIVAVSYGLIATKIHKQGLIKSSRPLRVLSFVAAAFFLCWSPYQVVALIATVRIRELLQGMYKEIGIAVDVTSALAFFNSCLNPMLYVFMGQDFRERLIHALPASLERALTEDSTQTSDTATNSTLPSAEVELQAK
Method in brief: as §1

Neuropeptide Y Y1 = Neuropeptide Y Y1 (Homo sapiens, UniProt P25929); experiment: Binding assay; settings: smilagenin 1 μM
Method in brief: as §1

Potassium Channel [KATP] = experiment: Binding assay; settings: smilagenin 1 μM
Method in brief: as §1

Prostanoid DP = Prostanoid DP (Homo sapiens, UniProt Q13258); experiment: Binding assay; settings: smilagenin 1 μM
Method in brief: as §1

Prostanoid EP2 = Prostanoid EP2 (Homo sapiens, UniProt P43116); experiment: Binding assay; settings: smilagenin 1 μM
Sequence of Prostanoid EP2 (P43116 whole entry): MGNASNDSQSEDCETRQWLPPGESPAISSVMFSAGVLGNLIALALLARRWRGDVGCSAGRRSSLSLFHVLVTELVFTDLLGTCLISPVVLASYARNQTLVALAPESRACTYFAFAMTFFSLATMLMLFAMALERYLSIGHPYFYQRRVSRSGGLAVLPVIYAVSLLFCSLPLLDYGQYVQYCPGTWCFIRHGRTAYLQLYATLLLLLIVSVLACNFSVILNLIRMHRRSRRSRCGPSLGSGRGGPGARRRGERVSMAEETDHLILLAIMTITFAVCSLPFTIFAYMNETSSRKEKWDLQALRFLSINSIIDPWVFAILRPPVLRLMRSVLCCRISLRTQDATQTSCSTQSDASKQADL
Method in brief: as §1

Sigma σ2 = Sigma σ2 (Rattus norvegicus, UniProt Q5U3Y7); experiment: Binding assay; settings: smilagenin 1 μM
Method in brief: as §1

Somatostatin sst4 = Somatostatin sst4 (Homo sapiens, UniProt P31391); experiment: Binding assay; settings: smilagenin 1 μM
Sequence of Somatostatin sst4 (P31391 whole entry): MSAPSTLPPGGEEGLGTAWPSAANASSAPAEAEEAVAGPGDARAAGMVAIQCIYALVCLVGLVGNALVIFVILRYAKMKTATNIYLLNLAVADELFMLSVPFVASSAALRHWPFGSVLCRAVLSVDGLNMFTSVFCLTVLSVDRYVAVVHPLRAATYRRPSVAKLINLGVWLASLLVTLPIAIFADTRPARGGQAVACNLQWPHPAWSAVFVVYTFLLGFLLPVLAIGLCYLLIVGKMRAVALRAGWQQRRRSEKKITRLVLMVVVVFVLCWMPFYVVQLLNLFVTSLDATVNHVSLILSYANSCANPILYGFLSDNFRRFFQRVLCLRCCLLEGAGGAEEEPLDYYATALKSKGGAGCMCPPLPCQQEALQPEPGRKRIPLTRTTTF
Method in brief: as §1

Transporter, Choline = Transporter, Choline (Rattus norvegicus, UniProt Q9JMD7); experiment: Binding assay; settings: smilagenin 1 μM
Method in brief: as §1

[5] = biological target: Transporter, Dopamine (DAT) (Homo sapiens, UniProt Q01959); experiment: Binding assay; settings: smilagenin 1 μM
Method in brief: as §1

Vanilloid = biological target: T4, Vanilloid (Rattus norvegicus, UniProt O35433); experiment: Binding assay; settings: smilagenin 1 μM
T4 construct: host or cells: tissue or cell homogenate, not specified
T4 sequence (O35433 whole entry): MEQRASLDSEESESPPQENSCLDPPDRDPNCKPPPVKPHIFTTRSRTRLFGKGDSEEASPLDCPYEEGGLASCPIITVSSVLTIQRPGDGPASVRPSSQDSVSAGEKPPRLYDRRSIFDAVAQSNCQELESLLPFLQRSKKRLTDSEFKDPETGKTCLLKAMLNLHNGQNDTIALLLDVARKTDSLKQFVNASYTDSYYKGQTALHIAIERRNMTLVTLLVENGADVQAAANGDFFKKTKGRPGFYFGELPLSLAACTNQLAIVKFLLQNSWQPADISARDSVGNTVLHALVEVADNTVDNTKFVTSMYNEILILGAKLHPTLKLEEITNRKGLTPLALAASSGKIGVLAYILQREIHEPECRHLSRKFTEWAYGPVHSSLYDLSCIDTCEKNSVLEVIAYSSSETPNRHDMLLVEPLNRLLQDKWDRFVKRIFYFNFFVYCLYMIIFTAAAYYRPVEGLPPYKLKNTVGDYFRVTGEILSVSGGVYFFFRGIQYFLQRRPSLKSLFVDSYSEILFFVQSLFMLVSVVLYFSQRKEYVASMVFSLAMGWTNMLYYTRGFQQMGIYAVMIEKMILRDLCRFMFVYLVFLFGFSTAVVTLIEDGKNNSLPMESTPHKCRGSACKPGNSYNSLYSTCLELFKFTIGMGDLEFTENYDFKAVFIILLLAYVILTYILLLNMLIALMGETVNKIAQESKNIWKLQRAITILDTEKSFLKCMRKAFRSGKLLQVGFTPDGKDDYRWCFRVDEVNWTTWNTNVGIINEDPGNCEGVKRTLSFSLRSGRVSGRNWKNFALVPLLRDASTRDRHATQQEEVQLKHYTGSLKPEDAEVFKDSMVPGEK
Method in brief: as §1

Vasopressin V1A = biological target: T5, Vasopressin V1A (Homo sapiens, UniProt P37288); experiment: Binding assay; settings: smilagenin 1 μM
T5 construct: host or cells: tissue or cell homogenate, not specified
T5 sequence (P37288 whole entry): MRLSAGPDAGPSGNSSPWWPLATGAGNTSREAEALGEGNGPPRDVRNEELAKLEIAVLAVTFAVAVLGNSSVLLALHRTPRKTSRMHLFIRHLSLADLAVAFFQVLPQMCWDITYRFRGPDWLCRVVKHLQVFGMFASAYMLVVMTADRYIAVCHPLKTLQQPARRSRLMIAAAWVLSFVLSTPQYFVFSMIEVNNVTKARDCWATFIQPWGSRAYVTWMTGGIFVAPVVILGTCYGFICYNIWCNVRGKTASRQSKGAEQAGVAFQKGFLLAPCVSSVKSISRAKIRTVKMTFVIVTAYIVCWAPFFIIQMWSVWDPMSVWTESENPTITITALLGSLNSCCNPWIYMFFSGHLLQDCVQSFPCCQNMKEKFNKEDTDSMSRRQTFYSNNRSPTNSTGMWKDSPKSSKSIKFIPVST
Method in brief: as §1

Vitamin D3 = biological target: T6, Vitamin D3 (Homo sapiens, UniProt P11473); experiment: Binding assay; settings: smilagenin 1 μM
T6 construct: host or cells: tissue or cell homogenate, not specified
Method in brief: as §1

[6] = biological target: 5-Hydroxytryptamine, 5-HT4 (Cavia porcellus, UniProt O70528); experiment: Binding assay; set-up: species or system Guinea pig; settings: smilagenin 1 μM
Sequence of 5-Hydroxytryptamine, 5-HT4 (O70528 whole entry): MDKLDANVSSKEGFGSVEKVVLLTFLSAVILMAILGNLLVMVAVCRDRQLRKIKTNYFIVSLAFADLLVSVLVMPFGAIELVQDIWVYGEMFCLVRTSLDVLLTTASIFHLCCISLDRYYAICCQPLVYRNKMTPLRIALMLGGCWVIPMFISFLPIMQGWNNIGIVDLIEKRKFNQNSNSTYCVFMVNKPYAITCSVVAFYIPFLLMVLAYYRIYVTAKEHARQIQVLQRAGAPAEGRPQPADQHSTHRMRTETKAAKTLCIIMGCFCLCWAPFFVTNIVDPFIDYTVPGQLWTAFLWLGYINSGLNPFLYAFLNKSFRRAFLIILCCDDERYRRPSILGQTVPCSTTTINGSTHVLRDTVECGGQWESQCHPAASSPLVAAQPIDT
Method: (§2) The receptor binding was investigated using the following method: Sarsasapogenin was incubated with tissue or cell homogenate that expressed the receptor of interest and a known concentration a radiolabelled compound with affinity for the receptor of interest. After the incubation period the non-bound radiolabelled compound was removed and the amount of specific binding was quantified. The amount of specific binding in the presence and absence of sarsasapogenin were compared and the percent inhibition of the binding of the radiolabelled compound by sarsasapogenin was calculated. The source of the receptor, the incubation conditions, the radiolabelled compound used varied depending on each specific assay.
(§3) Using the same methods as described above, the binding of smilagenin (1 μM) to the receptors listed in Table 2 below, and the effect of smilagenin on the activity of the enzymes listed in Table 2 below, were investigated.

[7] = tested on: Atrial Natriuretic Factor; experiment: Binding assay; set-up: species or system Guinea pig; settings: smilagenin 1 μM
Method: as §2, §3

Transporter, Adenosine = experiment: Binding assay; set-up: species or system Guinea pig; settings: smilagenin 1 μM
Method: as §2, §3

BDNF = experiment: Striatal BDNF in MPTP-lesioned mice (ELISA); format: in vivo, C57b1/6 RJ mice; settings: smilagenin 10 mg/kg/day oral, 60 days, striatum
Method: Seven-week old male C57b1/6 RJ mice (C57 mice) received daily injections 1-methyl-4-phenyl-1,2,3,6-tetrahydropyridine (MPTP, 25 mg/kg/day, i.p., for 5 consecutive days) and oral administration of smilagenin (10 mg/kg/day) or vehicle (hydroxylpropylmethylcellulose, HPMC 0.5% w/v containing tween-80 0.2% v/v) for 60 days after which time their brains were removed for quantification of striatal levels of GDNF and BDNF using an ELISA and of dopamine transporter (DAT) levels using [I^125]-RTI binding. DAT is a marker for neuronal damage to dopaminergic neurones.

Sequence of 5-Hydroxytryptamine, 5-HT5A (P47898 whole entry): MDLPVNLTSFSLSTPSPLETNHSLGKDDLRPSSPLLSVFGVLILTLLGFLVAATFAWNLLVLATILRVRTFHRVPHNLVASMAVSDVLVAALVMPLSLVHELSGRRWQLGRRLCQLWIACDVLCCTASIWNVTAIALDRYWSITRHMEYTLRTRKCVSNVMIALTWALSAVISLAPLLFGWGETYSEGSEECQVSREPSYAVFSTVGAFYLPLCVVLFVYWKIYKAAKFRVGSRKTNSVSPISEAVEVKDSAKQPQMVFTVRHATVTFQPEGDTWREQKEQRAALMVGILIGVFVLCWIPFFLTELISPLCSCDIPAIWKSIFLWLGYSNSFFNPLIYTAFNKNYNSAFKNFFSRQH

## C[C@@H]1CC[C@@]2(OC1)O[C@H]1C[C@H]3[C@@H]4CC[C@@H]5C[C@@H](O)CC[C@]5(C)[C@H]4CC[C@]3(C)[C@H]1[C@@H]2C [Smilagenin, smilagenin]
[1]
  Effect (%): NS (NS = No significant response. Significance was taken as ≧30% stimulation or inhibition)
APJ
  Effect (%): NS (NS = No significant response. Significance was taken as ≧30% stimulation or inhibition)
Adensonine A2A
  Effect (%): NS (NS = No significant response. Significance was taken as ≧30% stimulation or inhibition)
Adrenergic α2C
  Effect (%): NS (NS = No significant response. Significance was taken as ≧30% stimulation or inhibition)
Adrenomedullin AM2
  Effect (%): NS (NS = No significant response. Significance was taken as ≧30% stimulation or inhibition)
Aldosterone
  Effect (%): NS (NS = No significant response. Significance was taken as ≧30% stimulation or inhibition)
Anaphylatoxin C5a
  Effect (%): NS (NS = No significant response. Significance was taken as ≧30% stimulation or inhibition)
Chemokine CCR2B
  Effect (%): NS (NS = No significant response. Significance was taken as ≧30% stimulation or inhibition)
[2]
  Effect (%): NS (NS = No significant response. Significance was taken as ≧30% stimulation or inhibition)
Dopamine D2S
  Effect (%): NS (NS = No significant response. Significance was taken as ≧30% stimulation or inhibition)
Endothelin ETA
  Effect (%): NS (NS = No significant response. Significance was taken as ≧30% stimulation or inhibition)
Galanin GAL2
  Effect (%): NS (NS = No significant response. Significance was taken as ≧30% stimulation or inhibition)
Histamine H2
  Effect (%): NS (NS = No significant response. Significance was taken as ≧30% stimulation or inhibition)
[3]
  Effect (%): NS (NS = No significant response. Significance was taken as ≧30% stimulation or inhibition)
Melanocortin MC1
  Effect (%): NS (NS = No significant response. Significance was taken as ≧30% stimulation or inhibition)
Melatonin MT2
  Effect (%): NS (NS = No significant response. Significance was taken as ≧30% stimulation or inhibition)
Muscarinic M2
  Effect (%): NS (NS = No significant response. Significance was taken as ≧30% stimulation or inhibition)
[4]
  Effect (%): NS (NS = No significant response. Significance was taken as ≧30% stimulation or inhibition)
Neuropeptide Y Y1
  Effect (%): NS (NS = No significant response. Significance was taken as ≧30% stimulation or inhibition)
Potassium Channel [KATP]
  Effect (%): NS (NS = No significant response. Significance was taken as ≧30% stimulation or inhibition)
Prostanoid DP
  Effect (%): NS (NS = No significant response. Significance was taken as ≧30% stimulation or inhibition)
Prostanoid EP2
  Effect (%): NS (NS = No significant response. Significance was taken as ≧30% stimulation or inhibition)
Sigma σ2
  Effect (%): NS (NS = No significant response. Significance was taken as ≧30% stimulation or inhibition)
Somatostatin sst4
  Effect (%): NS (NS = No significant response. Significance was taken as ≧30% stimulation or inhibition)
Transporter, Choline
  Effect (%): NS (NS = No significant response. Significance was taken as ≧30% stimulation or inhibition)
[5]
  Effect (%): NS (NS = No significant response. Significance was taken as ≧30% stimulation or inhibition)
Vanilloid
  Effect (%): NS (NS = No significant response. Significance was taken as ≧30% stimulation or inhibition)
Vasopressin V1A
  Effect (%): NS (NS = No significant response. Significance was taken as ≧30% stimulation or inhibition)
Vitamin D3
  Effect (%): NS (NS = No significant response. Significance was taken as ≧30% stimulation or inhibition)
[6]
  Effect (%): NS (NS = No significant response. Significance was taken as ≧30% stimulation or inhibition)
[7]
  Effect (%): NS (NS = No significant response. Significance was taken as ≧30% stimulation or inhibition)
Transporter, Adenosine
  Effect (%): NS (NS = No significant response. Significance was taken as ≧30% stimulation or inhibition)
BDNF
  BDNF (% increase above MPTP mice): 164 ± 53 %
  BDNF (pg/mg tissue): 46.91 ± 9.97 pg/mg tissue
